Data on three compounds can be found in patent EP4711470A1, “METHOD AND KIT FOR EVALUATING ENZYME ACTIVITY” (The University of Tokyo, priority 2023, dated 2025).

In one series the test system is lactate dehydrogenase. Kind of series: Single-molecule coupled assay of lactate dehydrogenase oxidative activity in human plasma (microchamber array). Format: biochemical. The following applies: for S/N ratio compared with SiRWST-3 or Q-dsAMC as fluorescent probe: same experiment, with SiRWST-3, 100 µM 1-MeO-PMS in place of NADH:quinone oxidoreductase. The procedure:
To a HEPES buffer (100 mM, pH 7.4) containing CaCl2 (1 mM), MgCl2 (1 mM), DTT (dithiothreitol, 100 µM), and Triton X-100 (200 µM), Q-sHMRG (30 µM), Q-HMRG (30 µM) or resazurin (30 µM), lactate (1 mM), NAD^+ (oxidized nicotinamide adenine dinucleotide, 500 µM), and NADH:quinone oxidoreductase (50 µg/mL, Toyobo, DAD-311) were added. Then, plasma obtained from a healthy human subject was added to give a 3000-fold dilution (preparation step, Step (A)). 40 µL of the solution (a pre-encapsulation aqueous solution) thus prepared was introduced into a microchamber array Simoa (registered trademark) disk (Quanterix). Subsequently, 80 µL of Fluorinert (registered trademark) FC-70 (Sigma-Aldrich) as a hydrophobic solvent was introduced into the microchamber array to remove an aqueous solution not introduced into wells, and thereby W/O droplets were formed in wells. After incubation at room temperature for 3 hours (reaction step, Step (B)), fluorescence images were acquired by an epifluorescence microscope Ti2 (Nikon) equipped with a 20× objective lens (Plan Apo 20×), an sCMOS camera (ORCA-Fusion C14440, Hamamatsu Photonics), a white light unit (X-Cite Xylis, Opto Science), and a motorized stage (fluorescence measurement step, Step (C)).

Series [1] relates to NADH:quinone oxidoreductase. The experiment in a line: Reactivity of Q-sHMRG with DT-diaphorase and increase in fluorescence. Format: biochemical, microorganism. The following applies: 1 µM probe, HEPES buffer pH 7.4, 25°C. The method, then: Q-sHMRG prepared in Synthesis Example 1 was dissolved to give a final concentration of 1 µM in a HEPES buffer (100 mM, pH 7.4) containing CaCl2 (1 mM), MgCl2 (1 mM), DTT (dithiothreitol, 100 µM), and Triton X-100 (250 µM), and an absorption spectrum was measured. Then, NADH (100 µM) and NADH:quinone oxidoreductase (10 µg/mL, Toyobo, DAD-311) were added, and after incubation at 25°C for 4 hours, an absorption spectrum was measured again. Results are shown in (A) of FIG. 1.
Also, Q-sHMRG prepared in Synthesis Example 1 was dissolved to give a final concentration of 1 µM in a HEPES buffer (100 mM, pH 7.4) containing CaCl2 (1 mM), MgCl2 (1 mM), DTT (dithiothreitol, 100 µM), and Triton X-100 (250 µM), and then NADH at various concentrations and NADH:quinone oxidoreductase (10 µg/mL) were added. After incubation at 25°C for 30 minutes, fluorescence intensity was measured. Results are shown in (B) and (C) of FIG. 1.

Series [2] can be described thus: Fluorescence characteristics of reduction products. The following applies: may be values measured in PBS at pH 7.4.
Description: These fluorescence characteristics may be values measured, for example, in phosphate-buffered saline (PBS) at pH 7.4.

SMILES strings stand for the structures.

As for `CC1=C(C)C(=O)C(C(C)(C)CC(=O)Nc2ccc3c(c2)Oc2cc(N)ccc2C32OCc3ccc(S(=O)(=O)O)cc32)=C(C)C1=O` (stereo not shown) [Q-sHMRG], the “ratio (S/N ratio) of fluorescence intensity of a well encapsulating lactate dehydrogenase to a well not encapsulating it” value with lactate dehydrogenase (30 µM probe, lactate 1 mM, NAD+ 500 µM, plasma 3000-fold dilution, 3 hours, compared among Q-sHMRG, Q-HMRG and resazurin) is given as “greater”. Further, the “S/N ratio compared with SiRWST-3 or Q-dsAMC as fluorescent probe” value in the series with lactate dehydrogenase is “larger”. The “fluorescence intensity increased by a reduction reaction by NADH:quinone oxidoreductase” value in series [1] (NADH, NADH:quinone oxidoreductase 10 µg/mL (DAD-311)) came out at 235 fold. The “lowest quantity of NADH that the combination of probe and NADH:quinone oxidoreductase can detect” value in series [1] (NADH:quinone oxidoreductase 10 µg/mL, 30 minutes) came out at 0.01 µM.

Consider `O=c1ccc2[n+]([O-])c3ccc(O)cc3oc-2c1` [resazurin, reference compound], for which the “S/N ratio compared with SiRWST-3 or Q-dsAMC as fluorescent probe” value in the series on lactate dehydrogenase was “larger”.

Take `N=c1ccc2c(-c3ccc(S(=O)(=O)O)cc3CO)c3ccc(N)cc3oc-2c1` [sHMRG, 3',6'-diamino-3H-spiro[isobenzofuran-1,9'-xanthene]-5/6-sulfonic acid]: the molar extinction coefficient in series [2] (at maximum absorption wavelength) worked out at 80000 L/mol/cm. Moreover, in series [2], the fluorescence quantum yield is reported as 0.92; the “mathematical product of molar extinction coefficient and fluorescence quantum yield” value is 74000; the maximum absorption wavelength came out at 498 nm; the maximum fluorescence wavelength was found to be 517 nm.
